In US10961200B2, “Small molecule inhibitors of lactate dehydrogenase and methods of use thereof” (THE UNITED STATES OF AMERICA, AS REPRESENTED BY THE …, priority 2014, dated 2021) one finds IC50 data, which are given here for 27 compounds.

Where two headings read alike, the source gives them in different places.

One test deals with MiaPaCa2 cells. Put plainly: cell-based HT lactate assay, colorimetric/fluorometric detection (inhibition of lactate production). As to conditions: class symbols, 0 to 3 pluses. As for the experimental part: Cell-based HT Lactate assay is a miniaturized Biovision Lactate Colorimetric/Fluorometric Assay Kit (Cat #K607-100). The assay is roughly a 3.5 hour assay run in a 1536 plate format. Cell number optimization should be run for each cell line to achieve an optimal number in which lactate production equals roughly 90% of the standard curve range. Cell number per well optimization has been performed with the following cell lines: MiaPaCa2—500 cells/well, SNU398—500 cells/well, and P493—500 cells/well.
The lactate activity in Table 8 is represented by 0 to 3 pluses as follows: +++<1 μM; ++1-10 μM; +10-57 μM; and −>57 μM.

The target in another test is Human LDHA (Homo sapiens (Human), UniProt P00338). Put plainly: human LDHA primary biochemical assay (resazurin/diaphorase coupled, fluorescence). The source says:
Test compounds were placed in a Greiner Bio-One (Monroe, N.C.) 1536-well black solid bottom assay plate. 200 millimolar (mM) Tris HCl, pH 7.4, 100 micromolar […] EDTA and 0.01% TWEEN-20™, final concentration, was used as the assay buffer. The LDHA reagent was 2 nanomolar (nM) Human LDHA (Meridian Life Science, Inc., Memphis, Tenn.), final concentration, in assay buffer.
On the technique in general: Alamar Blue is a resazurin reagent that responds to reducing activity.

[1] abbreviates: LDHA inhibitory activity, activity level based on IC50 (Table 7).
The mark [2] stands for this setting: LDHA inhibitory activity, assay of Example 1, activity level classes.
Where [3] appears, read: read-out: Inhibitory activity IC50.

For the compound `N[S+](=O)([O-])c1ccc(Cc2c(-c3ccc(F)c(C4CCC4)c3)nn(-c3nc(C(=O)O)cs3)c2CC2CC2)cc1F` [Compound 382], the IC50 (in general, the concentration at which inhibition is half-maximal) in the test on MiaPaCa2 cells is less than 1 µM; on Human LDHA (setting [1]) it was less than 0.1 µM.

In the case of `NS(=O)(=O)c1ccc(Cc2c(-c3ccc(F)c(-c4cccc(F)c4)c3)nn(-c3nc(C(=O)O)cs3)c2CC2CC2)cc1` [Compound 239], the IC50 with MiaPaCa2 cells was less than 1 µM; against Human LDHA (setting [2]) it was less than 0.1 µM.

Consider `NS(=O)(=O)c1ccc(Cc2cn(-c3cc(C(=O)O)cs3)nc2-c2ccccc2)cc1` [Compound 213, 5-(3-phenyl-4-(4-sulfamoylbenzyl)-1H-pyrazol-1-yl)thiophene-3-carboxylic acid], for which the IC50 is greater than 57 µM in the test with MiaPaCa2 cells (Homo sapiens, MIA PaCa-2) and 1 to 57 µM on Human LDHA (setting [3]).

As for `NS(=O)(=O)c1ccc(Cc2c(-c3ccc(F)c(C4=CCCC4)c3)nn(-c3nc(C(=O)O)cs3)c2CC2CC2)cc1F` [Compound 444], the values for the IC50 in the test with MiaPaCa2 cells and against Human LDHA (setting [1]) were less than 1 µM and less than 0.1 µM, respectively.

Turning to `CC(C)C#Cc1cc(-c2nn(-c3nc(C(=O)O)cs3)c(CC3CC3)c2Cc2ccc([S+](N)(=O)[O-])c(F)c2)ccc1F` [Compound 445], the values for the half-inhibitory concentration (IC50) with MiaPaCa2 cells and against Human LDHA (setting [1]) were less than 1 µM and less than 0.1 µM, respectively.

Regarding `CCOC(=O)c1csc(-n2nc(-c3ccc(F)c(C#CC4CCCC4)c3)c(Cc3ccc([S+](N)(=O)[O-])cc3)c2CC2CC2)n1` [Compound 429], the IC50 with MiaPaCa2 cells is greater than 57 µM; on Human LDHA (setting [1]), 1 to 57 µM.

Regarding `NS(=O)(=O)c1ccc(Cc2c(-c3ccc(F)c(C#CC4(F)CCOC4)c3)nn(-c3nc(C(=O)O)cs3)c2CC2CC2)cc1F` (stereo not shown) [Compound 419], the IC50 with MiaPaCa2 cells was less than 1 µM; at Human LDHA (setting [1]) it was less than 0.1 µM.

Turning to `CCOC(=O)c1csc(-n2nc(-c3cccc(-c4ccccc4)c3)c(Cc3ccc(S(N)(=O)=O)c(F)c3)c2CC2CC2)n1` [Compound 393], the IC50 with MiaPaCa2 cells and on Human LDHA (setting [1]) was greater than 57 µM in each case.

On to `NS(=O)(=O)c1cccc(Cc2c(-c3ccc(F)c(-c4cccc(F)c4)c3)nn(-c3nc(C(=O)O)cs3)c2CC2CC2)c1` [Compound 368], for which the IC50 in the test on MiaPaCa2 cells lay in the range of 10 to 57 µM; on Human LDHA (setting [1]), 1 to 57 µM.

As to `CCOC(=O)c1csc(-n2nc(-c3ccc(F)c(C#CC4CCCC4)c3)c(Cc3ccc(S(N)(=O)=O)c(F)c3)c2C2CC2)n1` [Compound 434], the IC50 in the test on MiaPaCa2 cells is greater than 57 µM; on Human LDHA (setting [1]) it was 1 to 57 µM.

For the compound `Cc1ccc(-c2cc(-c3nn(-c4nc(C(=O)O)cs4)c(CC4CC4)c3Cc3ccc(S(N)(=O)=O)cc3F)ccc2F)cc1` [Compound 472, 2-(5-(cyclopropylmethyl)-3-(6-fluoro-4′-methyl-[1,1′-biphenyl]-3-yl)-4-(2-fluoro-4-sulfamoylbenzyl)-1H-pyrazol-1-yl)thiazole-4-carboxylic acid], the IC50 in the test with MiaPaCa2 cells (Homo sapiens, MIA PaCa-2) is less than 1 µM.

In the test on MiaPaCa2 cells (Homo sapiens, MIA PaCa-2), `NS(=O)(=O)c1ccc(Cc2c(-c3ccc(F)c(F)c3)nn(-c3nc(C(=O)O)cs3)c2O)cc1` [Compound 53, 2-(3-(3,4-difluorophenyl)-5-hydroxy-4-(4-sulfamoylbenzyl)-1H-pyrazol-1-yl)thiazole-4-carboxylic acid] registered an IC50 greater than 57 µM.

In turn, `CC(C)Oc1cccc(-c2nn(-c3nc(C(=O)O)cs3)c(CC3CC3)c2Cc2ccc(S(N)(=O)=O)cc2)c1` [Compound 504, 2-(5-(cyclopropylmethyl)-3-(3-isopropoxyphenyl)-4-(4-sulfamoylbenzyl)-1H-pyrazol-1-yl)thiazole-4-carboxylic Acid] registered an IC50 in the test on MiaPaCa2 cells (Homo sapiens, MIA PaCa-2) of 1 to 10 µM.

As to `NS(=O)(=O)c1ccc(Cc2c(-c3ccc(F)c(OC4CC4)c3)nn(-c3nc(C(=O)O)cs3)c2CC2CC2)cc1F` [Compound 471, 2-(3-(3-cydopropoxy-4-fluorophenyl)-5-(cyclopropylmethyl)-4-(3-fluoro-4-sulfamoylbenzyl)-1H-pyrazol-1-yl)thiazole-4-carboxylic acid], the IC50 with MiaPaCa2 cells (Homo sapiens, MIA PaCa-2) is 1 to 10 µM.

In turn, `NS(=O)(=O)c1ccc(Cc2c(-c3cccc(OC4CCCC4)c3)nn(-c3nc(C(=O)O)cs3)c2CC2CC2)cc1` [Compound 477, 2-(3-(3-(cyclopentyloxy)phenyl)-5-(cyclopropylmethyl)-4-(4-sulfamoylbenzyl)-1H-pyrazol-1-yl)thiazole-4-carboxylic Acid] showed an IC50 in the test with MiaPaCa2 cells (Homo sapiens, MIA PaCa-2) of less than 1 µM.

The compound `NS(=O)(=O)c1ccc(Cc2c(-c3cccc(-c4ccccc4)c3)nn(-c3nc(C(=O)O)cs3)c2O)cc1` [Compound 54, 2-(3-([1,1′-biphenyl]-3-yl)-5-hydroxy-4-(4-sulfamoylbenzyl)-1H-pyrazol-1-yl)thiazole-4-carboxylic acid] returned an IC50 in the test with MiaPaCa2 cells (Homo sapiens, MIA PaCa-2) greater than 57 µM.

For `NS(=O)(=O)c1ccc(Cc2c(-c3cccc(Nc4ccccc4)c3)nn(-c3nc(C(=O)O)cs3)c2CC2CC2)cc1` [Compound 485, 2-(5-(cyclopropylmethyl)-3-(3-(phenylamino)phenyl)-4-(4-sulfamoylbenzyl)-1H-pyrazol-1-yl)thiazole-4-carboxylic acid], the IC50 with MiaPaCa2 cells (Homo sapiens, MIA PaCa-2) fell in the range of 1 to 10 µM.

In the test on MiaPaCa2 cells, `N[S+](=O)([O-])c1ccc(Cc2c(-c3cccc(-c4ccccc4)c3)nn(-c3nc(C(=O)O)cs3)c2CC2CC2)cc1` [Compound 276] gave an IC50 of less than 1 µM.

Turning to `CCOC(=O)c1csc(-n2nc(-c3ccccc3)c(Cc3ccc(S(N)(=O)=O)cc3)c2C(F)(F)F)n1` [Compound 77, ethyl 2-(3-phenyl-4-(4-sulfamoylbenzyl)-5-(trifluoromethyl)-1H-pyrazol-1-yl)thiazole-4-carboxylate], the IC50 on Human LDHA (setting [3]) was 1 to 57 µM.

On Human LDHA (setting [1]), `COc1cccc(-c2cccc(-c3nn(-c4nc(C(=O)O)cs4)c(C4CC4)c3Cc3ccc(S(N)(=O)=O)c(F)c3)c2)c1` [Compound 353] gave an IC50 of less than 0.1 µM.

Take `Cc1ccc(-c2nn(-c3nc(C(=O)O)cs3)c(C3CC3)c2Cc2ccc(S(N)(=O)=O)cc2)cc1-c1cccnc1` [Compound 499, 2-(5-cyclopropyl-3-(4-methyl-3-(pyridin-3-yl)phenyl)-4-(4-sulfamoylbenzyl)-1H-pyrazol-1-yl)thiazole-4-carboxylic acid]: on Human LDHA (setting [1]), the concentration for half-maximal inhibition (IC50) is less than 0.1 µM.

As for `Nc1c(Cc2ccc(S(N)(=O)=O)cc2)c(-c2ccccc2)nn1-c1nc(C(F)(F)F)cs1` [Compound 137, 4-((5-amino-3-phenyl-1-(4-(trifluoromethyl)thiazol-2-yl)-1H-pyrazol-4-yl)methyl)benzenesulfonamide], at Human LDHA (setting [2]), the IC50 was greater than 57 µM.

`NS(=O)(=O)c1ccc(Cc2c(-c3ccccc3)nn(-c3nc(C(=O)O)cs3)c2C(F)(F)F)cc1` [Compound 44, 2-(3-phenyl-4-(4-sulfamoylbenzyl)-5-(trifluoromethyl)-1H-pyrazol-1-yl)thiazole-4-carboxylic acid]: the IC50 at Human LDHA (setting [2]) was less than 0.1 µM.

For the compound `N#CCc1cc(-c2ccc(F)c(F)c2)nn1-c1nc(C(=O)O)cs1` [Compound 74, 2-(5-(cyanomethyl)-3-(3,4-difluorophenyl)-1H-pyrazol-1-yl)thiazole-4-carboxylic acid], the IC50 at Human LDHA (setting [3]) was 1 to 57 µM.

As to `CCOC(=O)c1csc(-n2nc(-c3ccc(F)c(-c4cccc(F)c4)c3)c(Cc3ccc(S(N)(=O)=O)c(F)c3)c2C2CC2)n1` [Compound 247], the half-maximal inhibitory concentration (IC50) at Human LDHA (setting [2]) lay within 1 to 57 µM.

On to `NS(=O)(=O)c1ccc(Cc2cn(-c3nc(C(=O)O)cs3)c3cc(C(=O)N4CCOCC4)ccc23)cc1` [Compound 37, 2-(6-(morpholine-4-carbonyl)-3-(4-sulfamoylbenzyl)-1H-indol-1-yl)thiazole-4-carboxylic acid], for which the IC50 at Human LDHA (setting [3]) lay in the range of 1 to 57 µM.

As to `N[S+](=O)([O-])c1ccc(Cc2c(CC3CC3)nn(-c3nc(C(=O)O)cs3)c2-c2ccc(F)c(-c3cccc(F)c3)c2)cc1` [Compound 238], the IC50 at Human LDHA (setting [3]) fell in the range of 1 to 57 µM.
